This is an account of results in patent US20060004002A1 (priority 2004, published 2006).

The assay deals with T1, Recombinant human Src (Homo sapiens, UniProt P12931).
T1 construct: made in house; host or cells: baculovirus-insect cell system
Kind of assay: Src tyrosine kinase activity assay with poly E4Y and 32P-ATP. The assay is classed as biochemical. The settings on record: poly E4Y, 32P-ATP; NI = no inhibition; read-out: IC50 Value Src. On the procedure: Recombinant human Src was expressed using the baculovirus-insect cell system and purified as published (Budde et al., 1993 and 2000). Recombinant Csk and the FGF receptor (FGFr) were expressed as […] fusion proteins using the pGEX expression vector and E. coli, and purified as described (Sun & Budde, 1995).
The tyrosine kinase activity of Src, Csk and FGFr was determined using poly E4Y and ^32P-ATP. Briefly, enzymes were assayed in a reaction mixture […] consisting of 0.15 M EPPS-NaOH (pH 8.0) with 6 mM MgCl2, 0.2 mM γ^32P-ATP (0.2-0.4 mCi/μmol), 10% glycerol, 0.1% Triton X-100, and poly E4Y. Poly E4Y is a synthetic peptide whose phosphorylation is measured in this assay by the addition of the radioactively labeled phosphate from the ATP (Budde et al., 1995). […] When ATP was varied (0, 50, 100 and 250 μM), poly E4Y was kept constant at 150 μg/ml.

As usually defined, the IC50 is the point on the concentration scale where inhibition reaches its midpoint.

With “4-Carboxybenzaldehyde (6-(4-aminomethyl)phenyl-7-methylthieno[3,2-d]pyrimidin-4-yl)hydrazone [Compound 2]”, the IC50 stood at 24 nM.
For the compound `CCOc1ccccc1-c1sc2c(NN=Cc3ccc(OC)c(O)c3)ncnc2c1COCC(O)CO` (racemic) [Compound 56, 3-Hydroxy-4-methoxybenzaldehyde(7-((±)-4,5-dihydroxy-2-oxopentyl) (6-(2-ethoxyphenyl)thieno[3,2-d]pyrimidin-4-yl)hydrazone], the IC50 was determined as 120 nM.
With `CCOc1ccccc1-c1sc2c(NN=Cc3ccc(OC)c(OCCN(CC)CC)c3)ncnc2c1C` (single isomer, unassigned) [Compound 158] the figure was 0.015 nM; with `Cc1c(-c2ccc(CN)cc2)sc2c(NN=Cc3cccnc3)ncnc12` [Compound 3, 3-Pyridinecarboxaldehyde (6-(4-aminomethyl)phenyl-7-methylthieno[3,2-d]pyrimidin-4-yl)hydrazone], 24 nM.
As to `Cc1c(-c2ccc(CN)cc2)sc2c(NN=Cc3cccs3)ncnc12` [Compound 4, 2-Thiophenecarboxaldehyde (6-(4-aminomethyl)phenyl-7-methylthieno[3,2-d]pyrimidin-4-yl)hydrazone], the IC50 stood at 28 nM.
On to `COc1ccc(C=NNc2ncnc3c(C)c(-c4ccc(CN)cc4)sc23)cc1O` [Compound 5, 3-Hydroxy-4-methoxybenzaldehyde (6-(4-aminomethyl)phenyl-7-methylthieno[3,2-d]pyrimidin-4-yl)hydrazone], for which the IC50 was 32 nM.
The same measure for `Cc1c(-c2cccc(CN)c2)sc2c(NN=Cc3cccnc3)ncnc12` [Compound 6, 3-Pyridinecarboxaldehyde (6-(3-aminomethyl)phenyl-7-methylthieno[3,2-d]pyrimidin-4-yl)hydrazone]: 16 nM.
Consider `COc1ccc(C=NNc2ncnc3c(C)c(-c4ccccc4CN)sc23)cc1O` [Compound 7, 3-Hydroxy-4-methoxybenzaldehyde (6-(2-aminomethyl)phenyl-7-methylthieno[3,2-d]pyrimidin-4-yl)hydrazone], for which the IC50 stood at 120 nM.
As to `Cc1c(-c2ccc(N)cc2)sc2c(NN=Cc3cccnc3)ncnc12` [Compound 8, 3-Pyridinecarboxaldehyde (6-(4-aminophenyl)-7-methylthieno[3,2-d]pyrimidin-4-yl)hydrazone], the IC50 came to 9.6 nM.
With `Cc1c(-c2ccc(N)cc2)sc2c(NN=Cc3cccs3)ncnc12` [Compound 9, 2-Thiophenecarboxaldehyde (6-(4-aminophenyl)-7-methylthieno[3,2-d]pyrimidin-4-yl)hydrazone] the figure was 19 nM.
The same measure for `COc1ccc(C=NNc2ncnc3c(C)c(-c4ccc(N)cc4)sc23)cc1O` [Compound 10, 3-Hydroxy-4-methoxybenzaldehyde (6-(4-aminophenyl)-7-methylthieno[3,2-d]pyrimidin-4-yl)hydrazone]: 8.7 nM.
Regarding `Cc1c(-c2cccc(N)c2)sc2c(NN=Cc3cccnc3)ncnc12` [Compound 11, 3-Pyridinecarboxaldehyde (6-(3-aminophenyl)-7-methylthieno[3,2-d]pyrimidin-4-yl)hydrazone], the 50% inhibitory concentration (IC50) stood at 4.9 nM.
As to `COc1ccc(C=NNc2ncnc3c(C)c(-c4cccc(N)c4)sc23)cc1O` [Compound 12, 3-Hydroxy-4-methoxybenzaldehyde (6-(3-aminophenyl)-7-methylthieno[3,2-d]pyrimidin-4-yl)hydrazone], the IC50 was determined as 1.2 nM.
For the compound `COc1ccc(C=NNc2ncnc3c(C)c(-c4ccccc4N)sc23)cc1O` [Compound 13, 3-Hydroxy-4-methoxybenzaldehyde (6-(2-aminophenyl)-7-methylthieno[3,2-d]pyrimidin-4-yl)hydrazone], the IC50 was 38 nM.
The same measure for `Cc1c(CN2CCOCC2)sc2c(NN=Cc3cccnc3)ncnc12` [Compound 15, 3-Pyridinecarboxaldehyde (7-methyl-6-(morpholin-4-yl)methyllthieno[3,2-d]pyrimidin-4-yl)hydrazone]: 320 nM.
With `Cc1nc[nH]c1C=NNc1ncnc2c(C)c(CN3CCOCC3)sc12` [Compound 16, 4-Methyl-5-imidazolecarboxaldehyde (7-methyl-6-(morpholin-4-yl)methyllthieno[3,2-d]pyrimidin-4-yl)hydrazone], the IC50 is 620 nM.
The same measure for `COc1ccc(C=NNc2ncnc3c(C)c(-c4cccc(CN5CCOCC5)c4)sc23)cc1O` [Compound 17, 3-Hydroxy-4-methoxybenzaldehyde (7-methyl-6-(3-(morpholin-4-yl)methyl)phenylthieno[3,2-d]pyrimidin-4-yl)hydrazone]: 26 nM.
As for `COc1ccc(C=NNc2ncnc3c(C)c(CNc4ccccc4)sc23)cc1O` [Compound 18], the IC50 amounted to 550 nM.
Consider `COc1ccc(C=NNc2ncnc3c(C)c(-c4cccc(C(N)=O)c4)sc23)cc1O` [Compound 19, 3-Hydroxy-4-methoxybenzaldehyde (6-(3-aminocarbonylphenyl)-7-methylthieno[3,2-d]pyrimidin-4-yl)hydrazone], for which the IC50 came out at 14 nM.
Turning to `Cc1c(-c2cccc(C(N)=O)c2)sc2c(NN=Cc3cccs3)ncnc12` [Compound 20, 2-Thiophenecarboxaldehyde (6-(3-aminocarbonylphenyl)-7-methylthieno[3,2-d]pyrimidin-4-yl)hydrazone], the IC50 was found to be 54 nM.
The same measure for `Cc1c(-c2cccc(C(N)=O)c2)sc2c(NN=Cc3cccnc3)ncnc12` [Compound 21, 3-Pyridinecarboxaldehyde (6-(3-aminocarbonylphenyl)-7-methylthieno[3,2-d]pyrimidin-4-yl)hydrazone]: 91 nM.
In the case of `Cc1c(-c2cccc(C(N)=O)c2)sc2c(NN=Cc3ccc(C(=O)O)cc3)ncnc12` [Compound 22, 4-Carboxybenzaldehyde (6-(3-aminocarbonylphenyl)-7-methylthieno[3,2-d]pyrimidin-4-yl)hydrazone], the IC50 turned out to be 41 nM.
With `COc1ccc(C=NNc2ncnc3c(C)c(-c4ccc(C(N)=O)cc4)sc23)cc1O` [Compound 23, 3-Hydroxy-4-methoxybenzaldehyde (6-(4-aminocarbonylphenyl)-7-methylthieno[3,2-d]pyrimidin-4-yl)hydrazone] the figure was 20 nM; with `Cc1c(-c2ccc(C(N)=O)cc2)sc2c(NN=Cc3cccnc3)ncnc12` [Compound 24, 3-Pyridinecarboxaldehyde (6-(4-aminocarbonylphenyl)-7-methylthieno[3,2-d]pyrimidin-4-yl)hydrazone], 13 nM.
Turning to `Cc1c(-c2ccc(C(N)=O)cc2)sc2c(NN=Cc3cccs3)ncnc12` [Compound 25, 2-Thiophenecarboxaldehyde (6-(4-aminocarbonylphenyl)-7-methylthieno[3,2-d]pyrimidin-4-yl)hydrazone], the IC50 was determined as 26 nM.
On to `Cc1c(-c2ccc(C(N)=O)cc2)sc2c(NN=Cc3ccc(C(=O)O)cc3)ncnc12` [Compound 26, 4-Carboxybenzaldehyde (6-(4-aminocarbonylphenyl)-7-methylthieno[3,2-d]pyrimidin-4-yl)hydrazone], for which the IC50 amounted to 36 nM.
As to `COc1ccc(C=NNc2ncnc3c(C)c(-c4cccc(C#N)c4)sc23)cc1O` [Compound 27, 3-Hydroxy-4-methoxybenzaldehyde (6-(3-cyanophenyl)-7-methylthieno[3,2-d]pyrimidin-4-yl)hydrazone], the IC50 was determined as 58 nM.
As for `Cc1c(-c2cccc(C#N)c2)sc2c(NN=Cc3cccs3)ncnc12` [Compound 28, 2-Thiophenecarboxaldehyde (6-(3-cyanophenyl)-7-methylthieno[3,2-d]pyrimidin-4-yl)hydrazone], the IC50 came to 1400 nM.
With `Cc1c(-c2cccc(C#N)c2)sc2c(NN=Cc3cccnc3)ncnc12` [Compound 29, 3-Pyridinecarboxaldehyde (6-(3-cyanophenyl)-7-methylthieno[3,2-d]pyrimidin-4-yl)hydrazone] the figure was 27 nM; with `Cc1c(-c2cccc(C#N)c2)sc2c(NN=Cc3ccc(C(=O)O)cc3)ncnc12` [Compound 30, 4-Carboxybenzaldehyde (6-(3-cyanophenyl)-7-methylthieno[3,2-d]pyrimidin-4-yl)hydrazone], 160 nM; with `COc1ccc(C=NNc2ncnc3c(C)c(-c4ccccc4C#N)sc23)cc1O` [Compound 31, 3-Hydroxy-4-methoxybenzaldehyde (6-(2-cyanophenyl)-7-methylthieno[3,2-d]pyrimidin-4-yl)hydrazone], 74 nM.
`Cc1c(-c2cccc(C(=N)N)c2)sc2c(NN=Cc3cccnc3)ncnc12` [Compound 32]: the IC50 was found to be 41 nM.
With `COc1ccc(C=NNc2ncnc3c(C)c(-c4ccc(F)cc4)sc23)cc1O` [Compound 36, 3-Hydroxy-4-methoxybenzaldehyde (6-(4-fluorophenyl)-7-methylthieno[3,2-d]pyrimidin-4-yl)hydrazone], the IC50 stood at 57 nM.
Consider `COc1ccc(C=NNc2ncnc3c(C)c(-c4ccc(O)cc4)sc23)cc1O` [Compound 38, 3-Hydroxy-4-methoxybenzaldehyde (6-(4-hydroxyphenyl)-7-methylthieno[3,2-d]pyrimidin-4-yl)hydrazone], for which the IC50 is 15 nM.
For the compound `CCOc1ccccc1-c1sc2c(NN=Cc3ccc(OC)c(O)c3)ncnc2c1OC` [Compound 40, 3-Hydroxy-4-methoxybenzaldehyde (6-(2-ethoxyphenyl)-7-methoxythieno[3,2-d]pyrimidin-4-yl)hydrazone], the IC50 worked out at 22 nM.
